Literature values in patent US20250108152A1, “DRUG ELUTING POLYMER COMPOSED OF BIODEGRADABLE POLYMERS APPLIED TO SURFACE OF MEDICAL DEVICE” (The General Hospital Corporation, priority 2016, published 2025).

Compound | fraction of intravenous dose that penetrates bone
Cc1nnc(SCC2=C(C(=O)O)N3C(=O)[C@@H](NC(=O)Cn4cnnn4)[C@H]3SC2)s1 [cefazolin] | 7-15%
CO/N=C(\C(=O)N[C@@H]1C(=O)N2C(C(=O)O)=C(CSc3nc(=O)c(=O)[nH]n3C)CS[C@H]12)c1csc(N)n1 [ceftriaxone] | 5-19%
CN[C@H](CC(C)C)C(=O)N[C@H]1C(=O)N[C@@H](CC(N)=O)C(=O)N[C@H]2C(=O)N[C@H]3C(=O)N[C@H](C(=O)N[C@H](C(=O)O)c4cc(O)cc(O)c4-c4cc3ccc4O)[C@H](O)c3ccc(c(Cl)c3)Oc3cc2cc(c3O[C@@H]2O[C@H](CO)[C@@H](O)[C@H](O)[C@H]2O[C@H]2C[C@](C)(N)[C@H](O)[C@H](C)O2)Oc2ccc(cc2Cl)[C@H]1O [vancomycin] | 5-20%
